For 35 compounds, melting point results are on record in patent US8691837B2, “Substituted imidazo ring systems and methods” (3M Innovative Properties Company, priority 2003, dated 2014).

Molecules are shown by their SMILES. Structures can show the parent of a compound that is named as a salt.

The melting point is the temperature, or range, at which the solid turns liquid. For the compound `CCCc1nc2c(N)nc3ccccc3c2n1CCCCCCCCCCCC(=O)c1ccccc1` (as salt: hydrochloride) [Example 16, 12-(4-Amino-2-propyl-1H-imidazo[4,5-c]quinolin-1-yl)-1-phenyldodecan-1-one hydrochloride], the melting point fell in the range of 195 to 196 °C. Regarding `CCCc1nc2c(N)nc3ccccc3c2n1CCCCCCCCCCCC(=O)N(C)OC` (as salt: hydrochloride) [Example 21, 12-(4-Amino-2-propyl-1H-imidazo[4,5-c]quinolin-1-yl)-N-methoxy-N-methyldodecanamide hydrochloride], the melting point fell in the range of 156 to 158 °C.

On to `CCCCc1nc2c(N)nc3ccccc3c2n1CCCC(C)=O` [Example 2, 5-(4-Amino-2-butyl-1H-imidazo[4,5-c]quinolin-1-yl)pentan-2-one], for which the melting point was in the range of 173 to 176 °C. Then `CCCCc1nc2c(N)nc3ccccc3c2n1CCCCCC(=O)c1ccccc1` [Example 4, 6-(4-Amino-2-butyl-1H-imidazo[4,5-c]quinolin-1-yl)-1-phenylhexan-1-one], with 149 to 151 °C.

As for `Nc1nc2ccccc2c2c1ncn2CCCCCC(=O)c1ccccc1` [Example 5, 6-(4-Amino-1H-imidazo[4,5-c]quinolin-1-yl)-1-phenylhexan-1-one], the melting point lay in the range of 163 to 165 °C. `Cc1nc2c(N)nc3ccccc3c2n1CCCC1(C)OCCO1` [Example 6, 2-Methyl-1-[3-(2-methyl-[1,3]dioxolan-2-yl)propyl]-1H-imidazo[4,5-c]quinolin-4-amine] gave a melting point of 193 to 195 °C.

With `CCc1nc2c(N)nc3ccccc3c2n1CCCC1(C)OCCO1` [Example 7, 2-Ethyl-1-[3-(2-methyl-[1,3]dioxolan-2-yl)propyl]-1H-imidazo[4,5-c]quinolin-4-amine], the melting point lay in the range of 195 to 196.5 °C. Then `CCCc1nc2c(N)nc3ccccc3c2n1CCCC1(C)OCCO1` [Example 8, 1-[3-(2-Methyl-[1,3]dioxolan-2-yl)propyl]-2-propyl-1H-imidazo[4,5-c]quinolin-4-amine], with 184 to 186 °C. `CCCCc1nc2c(N)nc3ccccc3c2n1CCCC1(C)OCCO1` [Example 9, 2-Butyl-1-[3-(2-methyl-[1,3]dioxolan-2-yl)propyl]-1H-imidazo[4,5-c]quinolin-4-amine] displayed a melting point of 169 to 171.5 °C. In turn, `CCOCc1nc2c(N)nc3ccccc3c2n1CCCC1(C)OCCO1` [Example 10, 2-Ethoxymethyl-1-[3-(2-methyl-[1,3]dioxolan-2-yl)propyl]-1H-imidazo[4,5-c]quinolin-4-amine] returned a melting point of 150 to 152 °C. The compound `CC(=O)CCCn1c(C)nc2c(N)nc3ccccc3c21` [Example 11, 5-(4-Amino-2-methyl-1H-imidazo[4,5-c]quinolin-1-yl)pentan-2-one] returned a melting point of 194 to 196 °C. Regarding `CCc1nc2c(N)nc3ccccc3c2n1CCCC(C)=O` [Example 12, 5-(4-Amino-2-ethyl-1H-imidazo[4,5-c]quinolin-1-yl)pentan-2-one], the melting point lay within 206 to 208 °C. With `CCCc1nc2c(N)nc3ccccc3c2n1CCCC(C)=O` [Example 13, 5-(4-Amino-2-propyl-1H-imidazo[4,5-c]quinolin-1-yl)pentan-2-one] the figure was 176 to 177 °C; with `CCOCc1nc2c(N)nc3ccccc3c2n1CCCC(C)=O` [Example 14, 5-(4-Amino-2-ethoxymethyl-1H-imidazo[4,5-c]quinolin-1-yl)pentan-2-one], 173 to 175 °C; with `CCCc1nc2c(N)nc3ccccc3c2n1CCCCCC(C)=O` [Example 15, 7-(4-Amino-2-propyl-1H-imidazo[4,5-c]quinolin-1-yl)heptan-2-one], 161 to 163 °C. The compound `CCCc1nc2c(N)nc3ccccc3c2n1CCCC(=O)CC(C)C` [Example 17, 1-(4-Amino-2-propyl-1H-imidazo[4,5-c]quinolin-1-yl)-6-methylheptan-4-one] had a melting point of 136 to 138 °C. For `CCCCCCC(=O)CCCn1c(CCC)nc2c(N)nc3ccccc3c21` [Example 18, 1-(4-Amino-2-propyl-1H-imidazo[4,5-c]quinolin-1-yl)decan-4-one], the melting point is 111 to 113 °C. Then `CCCc1nc2c(N)nc3ccccc3c2n1CCCCCC(=O)N(C)OC` [Example 19, 6-(4-Amino-2-propyl-1H-imidazo[4,5-c]quinolin-1-yl)-N-methoxy-N-methylhexanamide], with 134 to 135 °C; and `CCCc1nc2c(N)nc3ccccc3c2n1CCCC(=O)N(C)OC` [Example 20, 4-(4-Amino-2-propyl-1H-imidazo[4,5-c]quinolin-1-yl)-N-methoxy-N-methylbutyramide], with 163 to 165 °C. With `Cc1nc2c(N)nc3ccccc3c2n1CC(C)(C)CC1(C)OCCO1` [Example 22, 1-[2,2-Dimethyl-3-(2-methyl-[1,3]dioxolan-2-yl)propyl]-2-methyl-1H-imidazo[4,5-c]quinolin-4-amine] the figure was 209 to 211 °C. For `CCCc1nc2c(N)nc3ccccc3c2n1CC(C)(C)CC1(C)OCCO1` [Example 23, 1-[2,2-Dimethyl-3-(2-methyl-[1,3]dioxolan-2-yl)propyl]-2-propyl-1H-imidazo[4,5-c]quinolin-4-amine], the melting point was in the range of 186 to 188 °C. The compound `CC(=O)CC(C)(C)Cn1c(C)nc2c(N)nc3ccccc3c21` [Example 24, 5-(4-Amino-2-methyl-1H-imidazo[4,5-c]quinolin-1-yl)-4,4-dimethylpentan-2-one] registered a melting point of 223 to 225 °C. With `CCCc1nc2c(N)nc3ccccc3c2n1CC(C)(C)CC(C)=O` [Example 25, 5-(4-Amino-2-propyl-1H-imidazo[4,5-c]quinolin-1-yl)-4,4-dimethylpentan-2-one] the figure was 178 to 180 °C. With `CCCc1nc2c(N)nc3ccccc3c2n1CCC(=O)OCC` [Example 26, Ethyl 3-(4-amino-2-propyl-1H-imidazo[4,5-c]quinolin-1-yl)propionate] the figure was 156 to 157 °C; with `CCCc1nc2c(N)nc3ccccc3c2n1CCCC(=O)OCC` [Example 27, Ethyl 4-(4-amino-2-propyl-1H-imidazo[4,5-c]quinolin-1-yl)butyrate], 154 to 156 °C; with `CCCc1nc2c(N)nc3ccccc3c2n1CCCCCC(=O)OCC` [Example 28, Ethyl 6-(4-amino-2-propyl-1H-imidazo[4,5-c]quinolin-1-yl)hexanoate], 112 to 113 °C. Compound `CCCc1nc2c(N)nc3ccccc3c2n1CC(OCC)OCC` [Example 29, 1-(2,2-Diethoxyethyl)-2-propyl-1H-imidazo[4,5-c]quinolin-4-amine] returned a melting point of 148 to 150 °C. `CCCc1nc2c(N)nc3ccccc3c2n1CCC(OCC)OCC` [Example 30, 1-(3,3-Diethoxypropyl)-2-propyl-1H-imidazo[4,5-c]quinolin-4-amine] showed a melting point of 148 to 150 °C.

`CC(C)(Cn1cnc2c(N)nc3ccccc3c21)CC1(C)OCCO1` [Example 31, 1-[2,2-Dimethyl-3-(2-methyl[1,3]dioxolan-2-yl)propyl]-1H-imidazo[4,5-c]quinolin-4-amine]: the melting point lay within 153 to 155 °C. Then `CC(=O)CC(C)(C)Cn1cnc2c(N)nc3ccccc3c21` [Example 32, 5-(4-Amino-1H-imidazo[4,5-c]quinolin-1-yl)-4,4-dimethylpentan-2-one], with 214 to 216 °C; and `CCCc1nc2c(N)nc(C)c(C)c2n1CCCC(C)=O` [Example 33, 5-(4-Amino-6,7-dimethyl-2-propyl-1H-imidazo[4,5-c]pyridin-1-yl)pentan-2-one], with 148.5 to 149.5 °C; and `CCOCc1nc2c(N)nc3ccccc3c2n1CCCC(=O)OCC` [Example 34, Ethyl 4-[4-amino-2-(ethoxymethyl)-1H-imidazo[4,5-c]quinolin-1-yl]butanoate], with 129 to 131 °C. With `CCOCc1nc2c(N)nc3ccccc3c2n1CCCC(=O)N(C)OC` [Example 35, 4-[4-Amino-2-(ethoxymethyl)-1H-imidazo[4,5-c]quinolin-1-yl]-N-methoxy-N-methylbutanamide] the figure was 163 to 165 °C. Then `CCCc1nc2c(N)nc3ccccc3c2n1CCCCC(=O)N(C)OC` [Example 36, 5-(4-Amino-2-propyl-1H-imidazo[4,5-c]quinolin-1-yl)-N-methoxy-N-methylpentanamide], with 150 to 151 °C. `CCOCc1nc2c(N)nc3ccccc3c2n1CC(=O)CC` [Example 37, 1-[4-Amino-2-(ethoxymethyl)-1H-imidazo[4,5-c]quinolin-1-yl]butan-2-one] registered a melting point of 187 to 188 °C.
